The values that follow are results of earlier work, collected in patent US8642603B2, “Substituted dihydro and tetrahydro oxazolopyrimidinones, preparation and use thereof” (Sanofi, priority 2007, dated 2014).

The test system of one series is healthy human subjects. To be noted: pretreatment.
Series [1] concerns pentylenetetrazole- and picrotoxin-induced seizures. To be noted: in vivo.
The subject of series [2] is positive and negative symptoms of schizophrenia. The following applies: compared to placebo.

Turning to `N[C@H](C(=O)O)c1ccc(C(=O)O)c(O)c1` [(S)-4-carboxy-3-hydroxyphenylglycine], the “protection against audiogenic seizures” value in the series on DBA/2 mice is listed as “protects against audiogenic seizures”.

Regarding `N[C@@]1(C(=O)O)CC[C@H]2[C@H](C(=O)O)[C@H]21` [LY354740], in the series with healthy human subjects, the “effect on disruption of working memory by ketamine” value is recorded as “attenuation of the disruptive effects”. Also, in series [1], the “effect on pentylenetetrazole- and picrotoxin-induced seizures” value was “attenuates pentylenetetrazole- and picrotoxin-induced seizures”.

Turning to `N[C@@]1(C(=O)O)CO[C@H]2[C@H](C(=O)O)[C@H]21` [LY379268], the “effect on REM sleep and fast EEG” value with rat was “suppresses rapid eye movement (REM) sleep and fast EEG”.

Turning to `CSCC[C@H](N)C(=O)N[C@@]1(C(=O)O)CS(=O)(=O)[C@H]2[C@H](C(=O)O)[C@H]21` [LY2140023], in series [2], the “positive and negative symptoms of schizophrenia” value is “statistically significant improvements”.

On to `N[C@]1(C(=O)O)[C@H]2[C@@H](C[C@H]1OCc1ccc(Cl)c(Cl)c1)[C@]2(F)C(=O)O` [MGS0039], for which the antidepressant-like effects result in the series on some animal models was “dose-dependent antidepressant-like effects”.

Turning to `Cc1c(OCc2cccc(-c3ccc(C(=O)O)cc3)c2)cc2c(c1C)C(=O)C(C1CCCC1)C2` (stereo not shown) [biphenyl-indanone A], in the series on mice, the “antipsychotic- and anxiolytic-like effects” value was “antipsychotic- and anxiolytic-like effects”.
